Reference: ChEMBL document CHEMBL1149141, “Crystal structures of the vitamin D nuclear receptor liganded with the vitamin D side chain analogues calcipotriol and seocalcitol, receptor agonists of clinical importance. Insights into a structural basis for the switching of calcipotriol to a receptor antagonist by further side chain …” (J Med Chem, 2004)

How the values were obtained:
Vitamin D3 receptor = molecular target: T1, Vitamin D3 receptor (Homo sapiens, UniProt P11473); test: Effective concentration required for inhibition of Vitamin D3 receptor
T1 sequence (P11473 whole entry): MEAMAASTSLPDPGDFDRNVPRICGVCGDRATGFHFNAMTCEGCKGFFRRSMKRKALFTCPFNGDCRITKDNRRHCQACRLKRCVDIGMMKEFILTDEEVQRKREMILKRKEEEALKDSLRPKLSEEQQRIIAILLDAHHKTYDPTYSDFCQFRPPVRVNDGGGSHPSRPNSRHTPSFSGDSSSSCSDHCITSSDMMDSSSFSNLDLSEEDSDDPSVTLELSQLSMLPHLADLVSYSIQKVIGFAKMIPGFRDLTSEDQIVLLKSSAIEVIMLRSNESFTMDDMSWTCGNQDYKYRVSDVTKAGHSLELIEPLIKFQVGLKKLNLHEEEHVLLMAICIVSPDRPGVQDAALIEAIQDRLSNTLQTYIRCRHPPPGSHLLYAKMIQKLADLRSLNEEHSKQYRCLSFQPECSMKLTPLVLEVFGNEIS

[1] = molecular target: T2, Vitamin D3 receptor (Homo sapiens) (UniProt P11473); test: Binding of compound towards human Vitamin D3 receptor was determined in vitro
T2 sequence (whole entry): T1 sequence (P11473 whole entry)

Row | EC50 (Vitamin D3 receptor) | Binding [1] | Structure (SMILES)
1 | 0.4 nM |  | C=C1/C(=C\C=C2/CCC[C@]3(C)[C@@H]([C@H](C)/C=C/[C@@H](O)C4(C(=O)OCCCC)CC4)CC[C@@H]23)C[C@@H](O)C[C@@H]1O
2 |  | 90% | C=C1/C(=C\C=C2/CCC[C@]3(C)[C@@H]([C@H](C)/C=C/[C@@H](O)C4CC4)CC[C@@H]23)C[C@@H](O)C[C@@H]1O
3 | 0.35 nM |  | C=C1/C(=C\C=C2/CCC[C@]3(C)[C@@H]([C@H](C)/C=C/[C@@H](O)C4(/C=C/C(=O)OCC)CC4)CC[C@@H]23)C[C@@H](O)C[C@@H]1O
4 |  | 80% | C=C1/C(=C\C=C2/CCC[C@]3(C)[C@@H]([C@H](C)/C=C/C=C/C(O)(CC)CC)CC[C@@H]23)C[C@@H](O)C[C@@H]1O
